Experimental data from patent US20070225330A1, “USE OF CERTAIN PHENYL-NAPHTHYL COMPOUNDS THAT DO NOT HAVE SIGNIFICANT AFFINITY TO ER ALPHA OR ER BETA FOR PROTECTION OF NEURONS AND OLIGODENDROCYTES IN THE TREATMENT OF MULTIPLE SCLEROSIS” (AVENTIS PHARMACEUTICALS INC., priority 2004, published 2007).

Assays:
[1] = test system: Primary rat oligodendrocyte progenitor cells; assay: Oligodendrocyte toxicity assay (LDH release, protection against toxin-induced toxicity); format: cell-based; details: compound pretreatment 1 hour, LDH after 24 hours; for Oligodendrocyte progenitor protection against Camptothecin: Camptothecin 10 μM; for Oligodendrocyte progenitor protection against SIN-1: SIN-1 10 mM
Description: Oligodendrocyte Toxicity Assay
Primary rat oligodendrocyte progenitor cells were obtained from the cerebra of 2-3 day old postnatal rats (Sprague Dawley). The meninges were removed and tissue was mechanically dissociated. Cells were plated on T75 flasks and fed with DMEM+10% FBS.
Enriched OLPs were collected by mechanical separation from the astrocytic monolayer and were expanded in serum free media (SFM) supplemented with the mitogens, PDGF-AA (10 ng/ml) and FGF-2 (10 ng/ml).
To generate mature oligodendrocytes, progenitor cells were switched to SFM supplemented with IGF-1 (10 ng/ml) 24 hours after plating and cells were grown under these conditions for 7 days prior to experimental assays.
Cells were plated in 96-well plates, 10,000 per well. Medium was changed to fresh medium and cells were pretreated with compounds for 1 hour. Toxins were added to give the following final concentrations:
After 24 hours, medium was removed and assayed for LDH activity using the Promega cytotox 96 kit (catalog #G1780). Results were calculated as percent protection against toxin-induced toxicity.

[2] = biological target: T1, ER α (Homo sapiens, UniProt P03372); assay: Affinity for ER receptors (α); format: binding; details: unit not given
T1 sequence (P03372 1-595): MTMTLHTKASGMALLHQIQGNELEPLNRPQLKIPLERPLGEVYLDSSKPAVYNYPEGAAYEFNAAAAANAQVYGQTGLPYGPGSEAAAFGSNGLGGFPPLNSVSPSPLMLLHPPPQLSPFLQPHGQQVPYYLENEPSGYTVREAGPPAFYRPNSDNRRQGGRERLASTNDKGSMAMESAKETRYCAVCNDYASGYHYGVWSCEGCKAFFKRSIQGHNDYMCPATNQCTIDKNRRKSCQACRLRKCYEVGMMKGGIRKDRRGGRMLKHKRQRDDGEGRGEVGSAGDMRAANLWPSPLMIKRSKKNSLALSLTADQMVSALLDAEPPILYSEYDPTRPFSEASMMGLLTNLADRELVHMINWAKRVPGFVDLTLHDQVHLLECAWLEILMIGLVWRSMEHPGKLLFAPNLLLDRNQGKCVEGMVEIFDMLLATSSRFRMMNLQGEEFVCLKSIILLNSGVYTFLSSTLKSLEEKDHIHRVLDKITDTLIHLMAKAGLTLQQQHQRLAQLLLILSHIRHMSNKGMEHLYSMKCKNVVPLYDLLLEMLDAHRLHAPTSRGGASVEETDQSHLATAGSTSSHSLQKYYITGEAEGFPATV

[3] = biological target: ER β (Homo sapiens, UniProt Q92731); assay: Affinity for ER receptors (β); format: binding; details: unit not given
ER β, sequence (Q92731 whole entry): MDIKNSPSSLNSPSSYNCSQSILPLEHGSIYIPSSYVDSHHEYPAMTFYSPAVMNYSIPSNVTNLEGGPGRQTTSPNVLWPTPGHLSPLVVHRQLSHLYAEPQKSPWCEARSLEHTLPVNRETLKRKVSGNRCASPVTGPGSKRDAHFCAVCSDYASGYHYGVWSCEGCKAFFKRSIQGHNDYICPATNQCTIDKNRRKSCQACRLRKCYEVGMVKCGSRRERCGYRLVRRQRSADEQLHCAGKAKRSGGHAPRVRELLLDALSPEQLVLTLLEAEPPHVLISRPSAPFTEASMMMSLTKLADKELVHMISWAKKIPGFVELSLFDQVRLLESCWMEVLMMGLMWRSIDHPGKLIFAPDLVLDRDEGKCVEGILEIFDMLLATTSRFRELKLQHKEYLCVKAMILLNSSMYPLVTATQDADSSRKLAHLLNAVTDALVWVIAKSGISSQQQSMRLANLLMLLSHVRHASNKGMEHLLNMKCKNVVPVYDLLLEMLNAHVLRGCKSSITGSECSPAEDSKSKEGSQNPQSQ

For Oc1ccc(-c2ccc3cc(O)ccc3c2)cc1 [Compound 7, 6-(4-Hydroxy-phenyl)-2-naphthalenol], the “Oligodendrocyte progenitor protection against Camptothecin” value [1] was “Effective”, the “Oligodendrocyte progenitor protection against SIN-1” value [1] was “Effective” and the “Affinity for ER receptors* α” value [2] was 408. For the same compound, the “Affinity for ER receptors* β” value [3] was 14.7.
In the case of Oc1ccc(-c2ccc3cc(O)ccc3c2Cl)cc1 [Compound 4, 5-chloro-6-(4-hydroxyphenyl)-2-naphthalenol], the “Oligodendrocyte progenitor protection against Camptothecin” value [1] was “Effective”, the “Oligodendrocyte progenitor protection against SIN-1” value [1] was “Effective” and the “Affinity for ER receptors* α” value [2] was 35.4. For the same compound, the “Affinity for ER receptors* β” value [3] was 3.
With C[C@@]12CCc3cc(O)ccc3[C@H]1CC[C@@]1(C)[C@H]2CC[C@@H]1O [Compound 11, Estrogen] the “Oligodendrocyte progenitor protection against Camptothecin” value [1] was “Effective”, the “Oligodendrocyte progenitor protection against SIN-1” value [1] was “Effective” and the “Affinity for ER receptors* α” value [2] was 1.17. The “Affinity for ER receptors* β” value [3] was 6.1.
For COc1ccc(-c2sc3cc(O)ccc3c2Oc2ccc(OCCN3CCCCC3)cc2)cc1 [Compound 10, Arzoxifen], the “Oligodendrocyte progenitor protection against Camptothecin” value [1] was “Very effective” and the “Oligodendrocyte progenitor protection against SIN-1” value [1] was “Very effective”.
